Reference: the supplement of paper PMC11451515

Tested on: SEM cells
Test: cell viability relative to DMSO control; higher = less cytotoxic
Conditions: 48 h
Procedure, shortened: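 Three leukemia lines were tested: NOMO1 and SEM at 500 cells/well and P12-Ichikawa at 1000 cells/well. Each was adapted for at least four passages in each medium and seeded in 5 μl in 1536-well plates, and library compounds in DMSO were pin-dosed from 47 μM to 0.79 nM in 11 threefold steps. After 48 h at 37°C, CellTiter-Glo One luminescence was read. Viability is a percentage relative to DMSO wells on each plate, with cell-free wells as background.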

[1] = HPLM + 10% dialyzed FBS, 0.000781 µM
[2] = HPLM + 10% dialyzed FBS, 0.00234 µM
[3] = HPLM + 10% dialyzed FBS, 0.00702 µM
[4] = HPLM + 10% dialyzed FBS, 0.0211 µM
[5] = HPLM + 10% dialyzed FBS, 0.0632 µM
[6] = HPLM + 10% dialyzed FBS, 0.19 µM
[7] = HPLM + 10% dialyzed FBS, 0.569 µM
[8] = HPLM + 10% dialyzed FBS, 1.71 µM
[9] = HPLM + 10% dialyzed FBS, 5.12 µM
[10] = HPLM + 10% dialyzed FBS, 15.4 µM
[11] = HPLM + 10% dialyzed FBS, 46.1 µM
[12] = RPMI 5 mM glucose + 10% FBS, 0.000781 µM
[13] = RPMI 5 mM glucose + 10% FBS, 0.00234 µM
[14] = RPMI 5 mM glucose + 10% FBS, 0.00702 µM
[15] = RPMI 5 mM glucose + 10% FBS, 0.0211 µM
[16] = RPMI 5 mM glucose + 10% FBS, 0.0632 µM
[17] = RPMI 5 mM glucose + 10% FBS, 0.19 µM
[18] = RPMI 5 mM glucose + 10% FBS, 0.569 µM
[19] = RPMI 5 mM glucose + 10% FBS, 1.71 µM
[20] = RPMI 5 mM glucose + 10% FBS, 5.12 µM
[21] = RPMI 5 mM glucose + 10% FBS, 15.4 µM
[22] = RPMI 5 mM glucose + 10% FBS, 46.1 µM
[23] = RPMI 5 mM glucose + 10% dialyzed FBS, 0.000781 µM
[24] = RPMI 5 mM glucose + 10% dialyzed FBS, 0.00234 µM
[25] = RPMI 5 mM glucose + 10% dialyzed FBS, 0.00702 µM
[26] = RPMI 5 mM glucose + 10% dialyzed FBS, 0.0211 µM
[27] = RPMI 5 mM glucose + 10% dialyzed FBS, 0.0632 µM
[28] = RPMI 5 mM glucose + 10% dialyzed FBS, 0.19 µM
[29] = RPMI 5 mM glucose + 10% dialyzed FBS, 0.569 µM
[30] = RPMI 5 mM glucose + 10% dialyzed FBS, 1.71 µM
[31] = RPMI 5 mM glucose + 10% dialyzed FBS, 5.12 µM
[32] = RPMI 5 mM glucose + 10% dialyzed FBS, 15.4 µM
[33] = RPMI 5 mM glucose + 10% dialyzed FBS, 46.1 µM

In the case of C[C@]\1(CCS\C(=N1)N)C2=CC(=C(F)C=C2F)C3=CN=CN=C3, the cell viability [1] is reported as 80%, the cell viability [2] is reported as 95.5% and the cell viability [3] is reported as 91.6%. The cell viability [4] was 94.5%, the cell viability [5] was 90.4% and the cell viability [6] was 94.6%. It also gave a cell viability [7] of 108%, a cell viability [8] of 99.3% and a cell viability [9] of 102%. For the same compound, the cell viability [10] was 102%, the cell viability [11] was 29.3% and the cell viability [12] was 92%. It also gave a cell viability [13] of 84.1%, a cell viability [14] of 98% and a cell viability [15] of 104%. The cell viability [16] was 106%, the cell viability [17] was 95.7% and the cell viability [18] was 96.6%. For the same compound, the cell viability [19] was 114%, the cell viability [20] was 71.2% and the cell viability [21] was 5.19%. For the same compound, the cell viability [22] was 2.28%, the cell viability [23] was 95.1% and the cell viability [24] was 80.4%. For the same compound, the cell viability [25] was 107%, the cell viability [26] was 111% and the cell viability [27] was 103%. For the same compound, the cell viability [28] was 96.4%, the cell viability [29] was 101% and the cell viability [30] was 108%. It also gave a cell viability [31] of 95.8%, a cell viability [32] of 51.3% and a cell viability [33] of 2.95%.
With Fc1ccc(C(c2ccc(F)cc2)N2CCN(C/C=C/c3ccccc3)CC2)cc1 the cell viability [1] was 113%, the cell viability [2] was 126% and the cell viability [3] was 109%. For the same compound, the cell viability [4] was 102%, the cell viability [5] was 116% and the cell viability [6] was 76.8%. It also gave a cell viability [7] of 111%, a cell viability [8] of 109% and a cell viability [9] of 55.8%. For the same compound, the cell viability [10] was 96.2% and the cell viability [11] was 81.6%.
C[C@H]1CN(C[C@@H](C)O1)CC(=O)NC2=CC=C3SC4=C(CC3=C2)C=CC=C4\C5=C\C(=O)\C=C(/O5)N6CCOCC6 was tested, and the cell viability [1] was 80.4%, the cell viability [2] was 108% and the cell viability [3] was 43%. For the same compound, the cell viability [4] was 118%, the cell viability [5] was 110% and the cell viability [6] was 126%. The cell viability [7] was 113%, the cell viability [8] was 113% and the cell viability [9] was 89.8%. The cell viability [10] was 84.4%, the cell viability [11] was 39.8% and the cell viability [12] was 76.2%. The cell viability [13] was 91.8%, the cell viability [14] was 14.3% and the cell viability [15] was 78.1%. For the same compound, the cell viability [16] was 86.6%, the cell viability [17] was 80.5% and the cell viability [18] was 83.2%. It also gave a cell viability [19] of 81.9%, a cell viability [20] of 75.8% and a cell viability [21] of 44.1%. The cell viability [22] was 15%, the cell viability [23] was 86.7% and the cell viability [24] was 95.3%. It also gave a cell viability [25] of 34.6%, a cell viability [26] of 101% and a cell viability [27] of 118%. For the same compound, the cell viability [28] was 111%, the cell viability [29] was 103% and the cell viability [30] was 99.4%. For the same compound, the cell viability [31] was 73.7%, the cell viability [32] was 46.9% and the cell viability [33] was 19.6%.
CO[C@H]1C[C@@H]2CC[C@@H](C)[C@@](O)(O2)C(=O)C(=O)N2CCCC[C@H]2C(=O)O[C@H]([C@H](C)C[C@@H]2CC[C@@H](OP(C)(C)=O)[C@H](OC)C2)CC(=O)[C@H](C)/C=C(\C)[C@@H](O)[C@@H](OC)C(=O)[C@H](C)C[C@H](C)/C=C/C=C/C=C/1C was tested, and the cell viability [1] was 91%, the cell viability [2] was 97.7% and the cell viability [3] was 99.9%. The cell viability [4] was 98.8%, the cell viability [5] was 81.7% and the cell viability [6] was 40.8%. It also gave a cell viability [7] of 80.2%, a cell viability [8] of 81.9% and a cell viability [9] of 75.4%. The cell viability [10] was 71.1%, the cell viability [11] was 64.1% and the cell viability [12] was 87.7%. The cell viability [13] was 96%, the cell viability [14] was 105% and the cell viability [15] was 76.7%. The cell viability [16] was 80.9%, the cell viability [17] was 42.9% and the cell viability [18] was 85.8%. For the same compound, the cell viability [19] was 78.8%, the cell viability [20] was 63.7% and the cell viability [21] was 66.6%. For the same compound, the cell viability [22] was 52.9%, the cell viability [23] was 105% and the cell viability [24] was 98.1%. For the same compound, the cell viability [25] was 108%, the cell viability [26] was 108% and the cell viability [27] was 92.3%. The cell viability [28] was 40.3%, the cell viability [29] was 85.7% and the cell viability [30] was 86.9%. For the same compound, the cell viability [31] was 71.9%, the cell viability [32] was 68.2% and the cell viability [33] was 57.1%.
For CC1SC/2=C(C(O)=O)/C(=O)C3=CC(=C(C=C3N12)N4CCN(CC4)C\C5=C(C)\OC(=O)O5)F (configuration not stated), the cell viability [12] was 61.5%, the cell viability [13] was 119% and the cell viability [14] was 128%. For the same compound, the cell viability [15] was 121%, the cell viability [16] was 124% and the cell viability [17] was 123%. For the same compound, the cell viability [18] was 132%, the cell viability [19] was 111% and the cell viability [20] was 121%. For the same compound, the cell viability [21] was 114%, the cell viability [22] was 112% and the cell viability [23] was 47.8%. For the same compound, the cell viability [24] was 125%, the cell viability [25] was 143% and the cell viability [26] was 130%. The cell viability [27] was 133%, the cell viability [28] was 102% and the cell viability [29] was 140%. It also gave a cell viability [30] of 126%, a cell viability [31] of 115% and a cell viability [32] of 116%. For the same compound, the cell viability [33] was 104%.
Compound N[C@@H](C(=O)N[C@H]1[C@H]2SC\C(=C(/N2C1=O)C(O)=O)Cl)C3=CC=CC=C3 has a cell viability [1] of 104%, a cell viability [2] of 101% and a cell viability [3] of 118%. It also gave a cell viability [4] of 108%, a cell viability [5] of 117% and a cell viability [6] of 110%. For the same compound, the cell viability [7] was 118%, the cell viability [8] was 108% and the cell viability [9] was 115%. The cell viability [10] was 128%, the cell viability [11] was 132% and the cell viability [23] was 119%. The cell viability [24] was 135%, the cell viability [25] was 117% and the cell viability [26] was 149%. It also gave a cell viability [27] of 137%, a cell viability [28] of 126% and a cell viability [29] of 147%. It also gave a cell viability [30] of 150%, a cell viability [31] of 120% and a cell viability [32] of 131%. The cell viability [33] was 129%.
Work on C#CCN(C)[C@H](C)Cc1ccccc1 yielded a cell viability [1] of 32.3%, a cell viability [2] of 83.6% and a cell viability [3] of 87.3%. It also gave a cell viability [4] of 83.5%, a cell viability [5] of 70.2% and a cell viability [6] of 91.8%. It also gave a cell viability [7] of 93.1%, a cell viability [8] of 90.2% and a cell viability [9] of 89.5%. The cell viability [10] was 87.2%, the cell viability [11] was 92.5% and the cell viability [12] was 34.7%. For the same compound, the cell viability [13] was 91.5%, the cell viability [14] was 103% and the cell viability [15] was 107%. It also gave a cell viability [16] of 83.4%, a cell viability [17] of 95.9% and a cell viability [18] of 62.6%. For the same compound, the cell viability [19] was 70.9%, the cell viability [20] was 95.7% and the cell viability [21] was 86.3%. For the same compound, the cell viability [22] was 90.5%, the cell viability [23] was 27.1% and the cell viability [24] was 89.6%. For the same compound, the cell viability [25] was 99.3%, the cell viability [26] was 97.9% and the cell viability [27] was 70.8%. It also gave a cell viability [28] of 89.6%, a cell viability [29] of 81.1% and a cell viability [30] of 86.9%. For the same compound, the cell viability [31] was 89.1%, the cell viability [32] was 93.8% and the cell viability [33] was 86%.
Cc1cc2c(C(C)C)c(O)c(O)c(C=O)c2c(O)c1-c1c(C)cc2c(C(C)C)c(O)c(O)c(C=O)c2c1O was tested, and the cell viability [1] was 107%, the cell viability [2] was 114% and the cell viability [3] was 105%. For the same compound, the cell viability [4] was 113%, the cell viability [5] was 112% and the cell viability [6] was 101%. The cell viability [7] was 116%, the cell viability [8] was 101% and the cell viability [9] was 99.2%. The cell viability [10] was 110%, the cell viability [11] was 27.6% and the cell viability [23] was 106%. It also gave a cell viability [24] of 123%, a cell viability [25] of 120% and a cell viability [26] of 109%. It also gave a cell viability [27] of 112%, a cell viability [28] of 113% and a cell viability [29] of 117%. For the same compound, the cell viability [30] was 103%, the cell viability [31] was 106% and the cell viability [32] was 90%. For the same compound, the cell viability [33] was 6.54%.
OC[C@H]1O[C@@H](Oc2ccc(O)cc2)[C@H](O)[C@@H](O)[C@@H]1O showed a cell viability [1] of 68.3%, a cell viability [2] of 82.3% and a cell viability [3] of 75.3%. For the same compound, the cell viability [4] was 93%, the cell viability [5] was 90.1% and the cell viability [6] was 95.1%. For the same compound, the cell viability [7] was 95.7%, the cell viability [8] was 19.1% and the cell viability [9] was 93.1%. It also gave a cell viability [10] of 77.7%, a cell viability [11] of 76.3% and a cell viability [12] of 71.7%. The cell viability [13] was 90.8%, the cell viability [14] was 73.7% and the cell viability [15] was 96.3%. The cell viability [16] was 90.3%, the cell viability [17] was 95.4% and the cell viability [18] was 102%. For the same compound, the cell viability [19] was 17%, the cell viability [20] was 82.3% and the cell viability [21] was 103%. The cell viability [22] was 77.2%, the cell viability [23] was 86.2% and the cell viability [24] was 81.8%. The cell viability [25] was 92.2%, the cell viability [26] was 87.8% and the cell viability [27] was 72%. The cell viability [28] was 101%, the cell viability [29] was 105% and the cell viability [30] was 22.1%. For the same compound, the cell viability [31] was 97.9%, the cell viability [32] was 88% and the cell viability [33] was 81.2%.
